From US7074824B2, “Pharmaceutical compositions containing beta-lapachone, or derivatives or analogs thereof, and methods of using same” (Arqule, Inc., priority 2001, dated 2006)
Read-outs that look alike come from different tables or passages of the source.

How the values were obtained:
A2780CP = test: MTS growth inhibition assay; format: cell-based, human; details: Homo sapiens, A2780C/P
Experimental: (§1) A2780 and A2780/CP (ovarian); MCF-7 (breast); HT-29 (colon); BxPC-3 (pancreas); and A549 (lung). The human tumor cell lines (purchased from ATCC, Rockville, Md.) were cultured at 37° C. […] Nova Tech, Grand Island, N.Y.) containing 10% fetal bovine serum (FBS, Nova Tech). Aliquots of cells were seeded into each well of 96-well microtiter plates at a final concentration of 10^4 cells/well and incubated for 24 h prior to exposure to test compounds. […] The MTS assay is a colorimetric assay based upon the ability of viable cells to convert MTS, a novel tetrazolium compound and electron-coupling reagent, to a colored formazan product that is soluble in cell culture medium. The cell concentration is then determined by measuring the absorbance of the formazan product at 490 nm. Growth inhibition, expressed as IC50, is calculated relative to vehicle-treated control cells.

A2780 = test: MTS growth inhibition assay; format: cell-based, human; details: Homo sapiens
Experimental: as §1

A549 = test: MTS growth inhibition assay; format: cell-based, human; details: Homo sapiens
Experimental: as §1

BxPC-3 = test: MTS growth inhibition assay; format: cell-based, human; details: Homo sapiens
Experimental: as §1

HT-29 = test: MTS growth inhibition assay; format: cell-based, human; details: Homo sapiens
Experimental: as §1

MCF-7 = test: MTS growth inhibition assay; format: cell-based, human; details: Homo sapiens
Experimental: as §1

[1] = system: six human cancer cells lines; test: MTS growth inhibition assay, summary over all lines; format: cell-based; details: all six tumor cell lines; tested up to 20 μM
Experimental: A2780 and A2780/CP (ovarian); MCF-7 (breast); HT-29 (colon); BxPC-3 (pancreas); and A549 (lung). The human tumor cell lines (purchased from ATCC, Rockville, Md.) were cultured at 37° C. (5% CO2) in RPMI medium (RPMI; Nova Tech, Grand Island, N.Y.) containing 10% fetal bovine serum (FBS, Nova Tech). Aliquots of cells were seeded into each well of 96-well microtiter plates at a final concentration of 10^4 cells/well and incubated for 24 h prior to exposure to test compounds. […] The MTS assay is a colorimetric assay based upon the ability of viable cells to convert MTS, a novel tetrazolium compound and electron-coupling reagent, to a colored formazan product that is soluble in cell culture medium. The cell concentration is then determined by measuring the absorbance of the formazan product at 490 nm. Growth inhibition, expressed as IC50, is calculated relative to vehicle-treated control cells.

[2] = system: Human ovarian cancer cells (36M2); test: Human ovarian cancer xenograft model, β-lapachone in Lipiodol and Taxol®; format: in vivo, athymic female nude mice; details: i.p., 10 cycles
Experimental: Human ovarian cancer cells (36M2, originally isolated from malignant ascites) were inoculated by i.p. injection into athymic female nude mice 24 h after irradiation. In this model, metastatic foci form approximately 1 week after inoculation, and tumor nodules of the peritoneum and malignant ascites develop in 4–5 weeks. Ten days after tumor inoculation (10×10^6 cells), treatment regimens were initiated. The control group was treated with vehicle alone. In each typical treatment cycle, the β-lapachone alone group was treated with 25–50 mg/kg i.p. of β-lapachone in Lipiodol solution and the Taxol® alone group was treated at 1 mg/kg i.p. (Taxol® formulation diluted in Lipiodol), both followed 24 h later by i.p. injection of vehicle. In the combination group, nude mice were treated with β-lapachone at 25–50 mg/kg, followed 24 h later by Taxol® at 1 mg/kg. All groups were treated for 10 cycles, with a 1-day break between each cycle. […] Host toxicity was evaluated by general appearance and body weight.

human PBMC = details: cited from earlier work

What does the source list for `CC1(C)CCC2=C(O1)c1ccccc1C(=O)C2=O` [β-lapachone]?
IC50 (A2780CP; read-out: Growth inhibitory activity (50% effective concentration, IC50), A2780CP (resistant) ovarian, Exp 1): 4.47 µM; IC50 (A2780CP; read-out: Growth inhibitory activity (50% effective concentration, IC50), A2780CP (resistant) ovarian, Exp 2): 1.61 µM; IC50 (A2780CP; read-out: Growth inhibitory activity (50% effective concentration, IC50), A2780CP (resistant) ovarian, Exp 3): 1.76 µM; IC50 (A2780CP; read-out: Growth inhibitory activity (50% effective concentration, IC50), A2780CP (resistant) ovarian, Mean ± SE of 3 experiments): 2.61 ± 0.93 µM; IC50 (A2780; A2780, read-out: Growth inhibitory activity (50% effective concentration, IC50), A2780 (sensitive) ovarian, Exp 1, 4 h treatment + 24 h drug-free): 2.11 µM; IC50 (A2780; A2780, read-out: Growth inhibitory activity (50% effective concentration, IC50), A2780 (sensitive) ovarian, Exp 2, 4 h treatment + 24 h drug-free): 3.99 µM; IC50 (A2780; A2780, read-out: Growth inhibitory activity (50% effective concentration, IC50), A2780 (sensitive) ovarian, Exp 3, 4 h treatment + 24 h drug-free): 0.876 µM; IC50 (A2780; A2780, read-out: Growth inhibitory activity (50% effective concentration, IC50), A2780 (sensitive) ovarian, Mean ± SE of 3 experiments): 2.32 ± 0.91 µM; IC50 (A549; A549, read-out: Growth inhibitory activity (50% effective concentration, IC50), A549 lung, Exp 1): 4.48 µM; IC50 (A549; A549, read-out: Growth inhibitory activity (50% effective concentration, IC50), A549 lung, Exp 2): 4.73 µM; IC50 (A549; A549, read-out: Growth inhibitory activity (50% effective concentration, IC50), A549 lung, Exp 3): 18.7 µM; IC50 (A549; A549, read-out: Growth inhibitory activity (50% effective concentration, IC50), A549 lung, Mean ± SE of 3 experiments): 9.3 ± 4.69 µM; IC50 (BxPC-3; BXPC-3, read-out: Growth inhibitory activity (50% effective concentration, IC50), BxPC-3 pancreas, Exp 1): 11.6 µM; IC50 (BxPC-3; BXPC-3, read-out: Growth inhibitory activity (50% effective concentration, IC50), BxPC-3 pancreas, Exp 2): 5.68 µM; IC50 (BxPC-3; BXPC-3, read-out: Growth inhibitory activity (50% effective concentration, IC50), BxPC-3 pancreas, Exp 3): 16.5 µM; IC50 (BxPC-3; BXPC-3, read-out: Growth inhibitory activity (50% effective concentration, IC50), BxPC-3 pancreas, Mean ± SE of 3 experiments): 11.3 ± 3.12 µM; IC50 (HT-29; HT-29, read-out: Growth inhibitory activity (50% effective concentration, IC50), HT-29 colon, Exp 1): 5.37 µM; IC50 (HT-29; HT-29, read-out: Growth inhibitory activity (50% effective concentration, IC50), HT-29 colon, Exp 2): 11.4 µM; IC50 (HT-29; HT-29, read-out: Growth inhibitory activity (50% effective concentration, IC50), HT-29 colon, Exp 3): 9.89 µM; IC50 (HT-29; HT-29, read-out: Growth inhibitory activity (50% effective concentration, IC50), HT-29 colon, Mean ± SE of 3 experiments): 8.89 ± 1.82 µM; IC50 (MCF-7; MCF7, read-out: Growth inhibitory activity (50% effective concentration, IC50), MCF-7 breast, Exp 1): 2.37 µM; IC50 (MCF-7; MCF7, read-out: Growth inhibitory activity (50% effective concentration, IC50), MCF-7 breast, Exp 2): 4.75 µM; IC50 (MCF-7; MCF7, read-out: Growth inhibitory activity (50% effective concentration, IC50), MCF-7 breast, Exp 3): 2.1 µM; IC50 (MCF-7; MCF7, read-out: Growth inhibitory activity (50% effective concentration, IC50), MCF-7 breast, Mean ± SE of 3 experiments): 3.07 ± 0.84 µM; growth inhibitory activity, verbal summary [1]: dose-dependent inhibitory effect; decrease in tumor number versus control ([2]; assessed day 50, β-lapachone 25–50 mg/kg in Lipiodol, Taxol® 1 mg/kg): ~75%; size of the tumor nodules and amount of ascites ([2]; laparotomy at day 50): considerable reduction in the size of the tumor nodules and the amount of ascites; cytotoxic effects on normal cells (human PBMC): No cytotoxic effects were observed
